{"source": "patent US10611741B2", "about": "“Substituted benzoxazine and related compounds” (THE J. DAVID GLADSTONE INSTITUTES, A TESTAMENTARY TRUST …, priority 2014, dated 2020)", "key": {"Rat neurons": {"tested_on": "Rat neurons", "assay": "Neuron autophagy assay (flux LC3 assay, conversion of photoconvertible reporter)", "type": "cell-based", "conditions": "tested at 5, 10, 50, 200, 500, 1000 nM, overnight treatment, read-out: concentration at which active (neuronal autophagy induction)", "protocol": "The induction of neuronal autophagy herein was measured by the conversion of photoconvertible reporter in a flux LC3 assay, as described in Tsvetkov et al., Nature Chemical Biology, 9:586-592 (2013), which is incorporated herein by reference.\nmApple, kindly provided by Kurt Thorn of the Nikon microscopy core at UCSFR, was cloned into the pGW1 vector. pGW1-GFP and pGW1-Htt^exl-Q97-GFP were transfected according to normal protocols.\nCell cultures included striata, cortices, and hippocampi from rat embryos or newborn (postnatal day 0) mice were dissected, dissociated, and plated on 96-well tissue culture plates coated with poly-D-lysine and laminin. Cells were cultured for 4 days in neurobasal medium with L-glutamine and B-27 before use.\nRat neurons were transfected with plasmids using lipofectamine, treated overnight with vehicle (DMSO) or 5, 10, 50, 200, 500, and 1000 nM of exemplifying compounds and imaged everyday, once a day, for 7 days. […] Kolmogrov-Smirnov statistics test was used to calculate P values."}, "[1]": {"tested_on": "primary neurons transfected with exon 1 of mHtt protein containing 97 poly-glutamines", "assay": "Neuronal death assay (primary rodent neuron cellular model of HD, survival by robotic microscopy)", "type": "cell-based", "conditions": "for protecting neurons from mHtt toxicity: in words", "protocol": "The compounds were tested in a primary rodent neuron cellular model of HD. In this disease model, neurons from the striatum, the site of severe pathology in HD, are transfected with full-length or N-terminal fragments of wild-type Htt or mHtt. The model recapitulates cellular and molecular features seen in HD, including mHtt-dependent neurodegeneration. To use the model in drug discovery, striatal neurons are co-transfected with fluorescently tagged mHtt and marker proteins and examined longitudinally using an automated fluorescent microscopy system (U.S. Pat. No. 7,139,415, incorporated by reference in its entirety). Neurons that express mHtt are periodically imaged, and the loss of fluorescence of the marker protein corresponds to cell death. Importantly, the automated system monitors how mHtt affects neuronal survival by following single cells longitudinally, distinguishing transfected neurons from non-transfected cells. Neurodegeneration is quantified by the difference in survival time between neuronal cells expressing mHtt and neuronal cells expressing wild-type Htt; drugs that increase neuronal survival in neurons expressing mHtt are neuroprotective. Hazard functions are determined by Cox proportional hazards (CPH) analysis to create hazard ratios that are the estimated instantaneous risk of death of individual cells, independent of population size.\nExemplifying compounds were tested for protecting neurons from mHtt toxicity. For this survival assay, primary neurons were transfected with a construct expressing exon 1 of mHtt protein containing 97 poly-glutamines and a fluorescent reporter to track the neurons. Neurons were imaged for 7 days using automated fluorescent robotic microscopy and analyzed for survival. Fluphenazine (Compound N) at 100 nM was used as positive control. DMSO was used as negative control."}, "[2]": {"conditions": "Table 4, dose 50 nM, mHtt neurons, imaged 7 days"}, "[3]": {"conditions": "Table 5, dose 10 nM, mHtt neurons, imaged 7 days"}, "[4]": {"conditions": "Table 3, dose 200 nM, mHtt neurons, imaged 7 days"}}, "data": [{"smiles": "Cc1ccc2c(c1)N(CCN1CCN(C)CC1)C(=O)CO2", "note": "[G, 6-methyl-4-(2-(4-methylpiperazin-1-yl)ethyl)-2H-benzo[b][1,4]oxazin-3(4H)-one]", "values": [{"measurement": "minimal effective concentration", "setting": "Rat neurons", "result": "< 0.05", "unit": "µM"}]}, {"smiles": "Cc1ccc2c(c1)N(C(=O)CN1CCN(C(C)C)CC1)CCO2", "note": "[P, 1-(6-methyl-2,3-dihydro-1,4-benzoxazin-4-yl)-2-(4-propan-2-ylpiperazin-1-yl)ethanone]", "values": [{"measurement": "Hazard Ratio", "setting": "[1]; [2]", "result": 0.7384}, {"measurement": "Hazard Ratio", "setting": "[1]; [3]", "result": 0.6275}, {"measurement": "protecting neurons from mHtt toxicity", "setting": "[1]", "result": "active at nM concentrations"}]}, {"smiles": "Cc1ccc2c(c1)N(CC(=O)N1CCN(CCNS(C)(=O)=O)CC1)CCO2", "note": "[Compound S, N-[2-[4-[2-(6-methyl-2,3-dihydro-1,4-benzoxazin-4-yl)acetyl]piperazin-1-yl]ethyl]methanesulfonamide]", "values": [{"measurement": "Hazard Ratio", "setting": "[1]; [2]", "result": 0.6953}, {"measurement": "protecting neurons from mHtt toxicity", "setting": "[1]", "result": "active at nM concentrations"}]}, {"smiles": "Cc1ccc2c(c1)N(CCC(=O)N1CCN(C)CC1)CCO2", "note": "[F, 3-(6-methyl-2,3-dihydro-4H-benzo[b][1,4]oxazin-4-yl)-1-(4-methylpiperazin-1-yl)propan-1-one]", "values": [{"measurement": "minimal effective concentration", "setting": "Rat neurons", "result": "< 0.05", "unit": "µM"}]}, {"smiles": "Cc1ccc2c(c1)N(CCN1CCN(C)CC1)CCO2", "note": "[Compound D, 6-methyl-4-(2-(4-methylpiperazin-1-yl)ethyl)-3,4-dihydro-2H-benzo[b][1,4]oxazine]", "values": [{"measurement": "Hazard Ratio", "setting": "[1]; Table 3, dose 10 nM, mHtt neurons, imaged 7 days", "result": 0.9161}, {"measurement": "protecting neurons from mHtt toxicity", "setting": "[1]", "result": "active at nM concentrations"}, {"measurement": "minimal effective concentration", "setting": "Rat neurons", "result": "< 0.05", "unit": "µM"}]}, {"smiles": "Cc1ccc2c(c1)N(C(=O)CN1CCN(C3CCCCC3)CC1)CCO2", "note": "[O, 2-(4-cyclohexylpiperazin-1-yl)-1-(6-methyl-2,3-dihydro-1,4-benzoxazin-4-yl)ethanone]", "values": [{"measurement": "Hazard Ratio", "setting": "[1]; [2]", "result": 0.5747}, {"measurement": "protecting neurons from mHtt toxicity", "setting": "[1]", "result": "active at nM concentrations"}]}, {"smiles": "Cc1ccc2c(c1)N(CCCN1CCN(C)CC1)CCO2", "note": "[C, 6-methyl-4-(3-(4-methylpiperazin-1-yl)propyl)-3,4-dihydro-2H-benzo[b][1,4]oxazine]", "values": [{"measurement": "minimal effective concentration", "setting": "Rat neurons", "result": "< 0.05", "unit": "µM"}]}, {"smiles": "Cc1ccc2c(c1)N(CC(=O)N1CCN(CCO)CC1)CCO2", "note": "[Q, 1-[4-(2-hydroxyethyl)piperazin-1-yl]-2-(6-methyl-2,3-dihydro-1,4-benzoxazin-4-yl)ethanone]", "values": [{"measurement": "Hazard Ratio", "setting": "[1]; [2]", "result": 0.5709}, {"measurement": "Hazard Ratio", "setting": "[1]; [3]", "result": 0.558}, {"measurement": "protecting neurons from mHtt toxicity", "setting": "[1]", "result": "active at nM concentrations"}]}, {"smiles": "Cc1ccc2c(c1)N(CC(=O)N1CCN(C)CC1)CCO2", "note": "[E, 2-(6-methyl-2,3-dihydro-4H-benzo[b][1,4]oxazin-4-yl)-1-(4-methylpiperazin-1-yl)ethan-1-one]", "values": [{"measurement": "Hazard Ratio", "setting": "[1]; Table 3, dose 50 nM, mHtt neurons, imaged 7 days", "result": 0.8952}, {"measurement": "protecting neurons from mHtt toxicity", "setting": "[1]", "result": "active at nM concentrations"}, {"measurement": "minimal effective concentration", "setting": "Rat neurons", "result": "< 0.05", "unit": "µM"}]}, {"smiles": "Cc1ccc2c(c1)N(C(=O)CC1CCN(C)CC1)CCO2", "note": "[L, 1-(6-methyl-2,3-dihydro-4H-benzo[b][1,4]oxazin-4-yl)-2-(1-methylpiperidin-4-yl)ethan-1-one]", "values": [{"measurement": "Hazard Ratio", "setting": "[1]; [4]", "result": 0.9143}, {"measurement": "protecting neurons from mHtt toxicity", "setting": "[1]", "result": "active at nM concentrations"}]}, {"smiles": "Cc1ccc2c(c1)N(CC(=O)N1CCN(C)CC1)C(=O)CO2", "note": "[I, 6-methyl-4-(2-(4-methylpiperazin-1-yl)-2-oxoethyl)-2H-benzo[b][1,4]oxazin-3(4H)-one]", "values": [{"measurement": "minimal effective concentration", "setting": "Rat neurons", "result": "< 0.05", "unit": "µM"}]}, {"smiles": "COCCN1CCN(C(=O)CN2CCOc3ccc(C)cc32)CC1", "note": "[R, 1-[4-(2-methoxyethyl)piperazin-1-yl]-2-(6-methyl-2,3-dihydro-1,4-benzoxazin-4-yl)ethanone]", "values": [{"measurement": "Hazard Ratio", "setting": "[1]; [2]", "result": 0.7345}, {"measurement": "Hazard Ratio", "setting": "[1]; [3]", "result": 0.7036}, {"measurement": "protecting neurons from mHtt toxicity", "setting": "[1]", "result": "active at nM concentrations"}]}, {"smiles": "Cc1ccc2c(c1)N(C(=O)CN1CCN(C)CC1)CCO2", "note": "[B, 1-(6-methyl-2,3-dihydro-4H-benzo[b][1,4]oxazin-4-yl)-2-(4-methylpiperazin-1-yl)ethan-1-one]", "values": [{"measurement": "minimal effective concentration", "setting": "Rat neurons", "result": "< 0.05", "unit": "µM"}]}, {"smiles": "Cc1ccc2c(c1)N(C(=O)CCN1CCN(C)CC1)CCO2", "note": "[A, 1-(6-methyl-2,3-dihydro-4H-benzo[b][1,4]oxazin-4-yl)-3-(4-methylpiperazin-1-yl)propan-1-one]", "values": [{"measurement": "minimal effective concentration", "setting": "Rat neurons", "result": "< 0.05", "unit": "µM"}]}, {"smiles": "Cc1ccc2c(c1)N(C(=O)CN1CCN(c3ccccc3)CC1)CCO2", "note": "[Compound K, 1-(6-methyl-2,3-dihydro-4H-benzo[b][1,4]oxazin-4-yl)-2-(4-phenylpiperazin-1-yl)ethan-1-one]", "values": [{"measurement": "Hazard Ratio", "setting": "[1]; [4]", "result": 0.9209}, {"measurement": "protecting neurons from mHtt toxicity", "setting": "[1]", "result": "active at nM concentrations"}]}, {"smiles": "OCCN1CCN(CCCN2c3ccccc3Sc3ccc(C(F)(F)F)cc32)CC1", "note": "[Compound N, 2-(4-(3-(2-(trifluoromethyl)-10H-phenothiazin-10-yl)propyl)piperazin-1-yl)ethan-1-ol, reference compound]", "values": [{"measurement": "Hazard Ratio", "setting": "[1]; Table 3, dose 100 nM, positive control", "result": 0.8553}, {"measurement": "Hazard Ratio", "setting": "[1]; Table 4, dose 100 nM, positive control", "result": 0.7018}, {"measurement": "Hazard Ratio", "setting": "[1]; Table 5, dose 100 nM, positive control", "result": 0.5273}]}]}
